Laboratory results published in patent US9617276B2, “Compounds and methods for treating AIDS and HIV infections” (priority 2009, dated 2017).

Legend:
Experiment in all cases: microbe, parasite or virus in culture
[1] = tested on: HIV-1286-1μM; format: cell-based, HIV-1; conditions: for EC50: Human immunodeficiency virus 1, MT4, read-out: EC50 (μM), HIV-1286-1 μM; for n-fold change in EC50, HIV-1286-1 μM: compared to wild-type HIV-1NL4-3
Protocol: (§1) Briefly, MT-2 cells (2×10^4/ml) were exposed to 100 50% tissue culture infectious doses (TCID50S) of HIV-1LAI, in the presence or absence of various concentrations of drugs in 96-well microculture plates and were incubated at 37° C. for 7 days. After 100 μl of the medium was removed from each well, 3-(4,5-dimetylthiazol-2-yl)-2,5-diphenyltetrazolium bromide (MTT) solution (10 μl, 7.5 mg/ml in phosphate-buffered saline) was added to each well in the plate, followed by incubation at 37° C. for 3 h. […] All assays were performed in duplicate or triplicate. […] To determine the drug susceptibility of certain laboratory HIV-1 strains, MT-4 cells were used as target cells. In brief, MT-4 cells (10^5/ml) were exposed to 100 TCID50S of drug-resistant HIV-1 strains in the presence or absence of various concentrations of drugs and on day 7 of culture, the supernatant was harvested and the amounts of p24 Gag protein were determined. […] All assays were performed in duplicate or triplicate.
(§2) Numbers in parentheses represent n-fold changes in EC50s for each isolate compared to the EC50s for wild-type HIV-1NL4-3.

[2] = tested on: HIV-1396-1μM; format: cell-based, HIV-1; conditions: for EC50: Human immunodeficiency virus 1, MT4, read-out: EC50 (μM), HIV-1396-1 μM; for n-fold change in EC50, HIV-1396-1 μM: compared to wild-type HIV-1NL4-3
Protocol: as §1, §2

[3] = tested on: HIV-1246-1μM; format: cell-based, HIV-1; conditions: for EC50: Human immunodeficiency virus 1, MT4, read-out: EC50 (μM), HIV-1246-1 μM; for n-fold change in EC50, HIV-1246-1 μM: compared to wild-type HIV-1NL4-3
Protocol: as §1, §2

[4] = tested on: HIV-1MDR/MM; format: cell-based; conditions: for EC50: Human immunodeficiency virus 1, read-out: EC50 (μM), HIV-1MDR/MM (NSI); for n-fold change of EC50, HIV-1MDR/MM: compared to wild-type HIV-1ERS104pre
Protocol: (§3) The susceptibility of HIV-1LAI and primary HIV-1 isolates to various drugs were determined as described previously (Koh et al. 2003 Antimicrob Agents Chemother 47:3123-9). Briefly, MT-2 cells (2×10^4/ml) were exposed to 100 50% tissue culture infectious doses (TCID50S) of HIV-1LAI, in the presence or absence of various concentrations of drugs in 96-well microculture plates and were incubated at 37° C. for 7 days. After 100 μl of the medium was removed from each well, 3-(4,5-dimetylthiazol-2-yl)-2,5-diphenyltetrazolium bromide (MTT) solution (10 μl, 7.5 mg/ml in phosphate-buffered saline) was added to each well in the plate, followed by incubation at 37° C. for 3 h. […] All assays were performed in duplicate or triplicate. To determine the susceptibility of primary HIV-1 isolates to drugs, phytohemagglutinin-activated peripheral blood mononuclear cells (PHA-PBMCs; 106/ml) were exposed to 50 TCID50S of each. The target cells were exposed to HIV-1104pre or drug-resistant HIV-1 in the presence or absence of various concentrations of drugs and were incubated for 7 days. Upon the conclusion of the culture, the amounts of p24 Gag protein in the supernatants were determined using a fully automated chemiluminescent enzyme immunoassay system (Lumipulse F; Fujirebio Inc., Tokyo, Japan) (Maeda et al. 2001 J Biol Chem 276:35194-200). To determine the drug susceptibility of certain laboratory HIV-1 strains, MT-4 cells were used as target cells. In brief, MT-4 cells (10^5/ml) were exposed to 100 TCID50S of drug-resistant HIV-1 strains in the presence or absence of various concentrations of drugs and on day 7 of culture, the supernatant was harvested and the amounts of p24 Gag protein were determined. […] All assays were performed in duplicate or triplicate.
(§4) These clinical strains contained 9 to 14 amino acid substitutions in the protease-encoding region, which have reportedly been associated with HIV-1 resistance to various PIs.
(§5) Amino acid substitutions identified in the protease-encoding region compared to the consensus type B sequence cited from the Los Alamos database include L63P in HIV-1ERS104pre; L10I, K14R, L33I, M36I, M46I, F53I, K55R, I62V, L63P, A71V, G73S, V82A, L90M, and I93L in HIV-1MDR/B; L10I, I15V, K20R, L24I, M36I, M46L, I54V, I62V, L63P, K70Q, V82A, and L89M in HIV-1MDR/C; L10I, V11I, T12E, I15V, L19I, R41K, M46L, L63P, A71T, V82A, and L90M in HIV-1MDR/G; L10I, K14R, R41K, M46L, I54V, L63P, A71V, V82A, L90M, I93L in HIV-1MDR/TM; L10I, K43T, M46L, I54V, L63P, A71V, V82A, L90M, and Q92K in HIV-1MDR/MM; L10I, L24I, I33F, E35D, M36I, N37S, M46L, I54V, R57K, I62V, L63P, A71V, G73S, and V82A in HIV-1MDR/JSL. HIV-1ERS104pre served as a source of wild-type HIV-1. EC50s were determined by using PHA-PBMs as target cells, and inhibition of p24 Gag protein production by each drug was used as an end point. Numbers in parentheses represent n-fold changes of EC50s for each isolate compared to EC50s for wild-type HIV-1ERS104pre.

[5] = tested on: HIV-1MDR/JSL; format: cell-based; conditions: for EC50: Human immunodeficiency virus 1, read-out: EC50 (μM), HIV-1MDR/JSL (NSI)
Protocol: as §3, §4, §5

[6] = tested on: HIV-1AZV5μM; format: cell-based; conditions: for EC50: Human immunodeficiency virus 1, MT4, read-out: EC50 (μM), HIV-1AZV5 μM; for n-fold change in EC50, HIV-1AZV5 μM: compared to wild-type HIV-1NL4-3
Protocol: as §3, §2

[7] = tested on: HIV-1LPV5μM; format: cell-based; conditions: for EC50: Human immunodeficiency virus 1, MT4, read-out: EC50 (μM), HIV-1LPV5 μM; for n-fold change in EC50, HIV-1LPV5 μM: compared to wild-type HIV-1NL4-3
Protocol: as §3, §2

[8] = tested on: HIV-1APV5μM; format: cell-based; conditions: for EC50: Human immunodeficiency virus 1, MT4, read-out: EC50 (μM), HIV-1APV5 μM; for n-fold change in EC50, HIV-1APV5 μM: compared to wild-type HIV-1NL4-3
Protocol: as §3, §2

[9] = tested on: HIV-1SQV5μM; format: cell-based; conditions: for EC50: Human immunodeficiency virus 1, MT4, read-out: EC50 (μM), HIV-1SQV5 μM; for n-fold change in EC50, HIV-1SQV5 μM: compared to wild-type HIV-1NL4-3
Protocol: as §3, §2

[10] = tested on: HIV-1NFV5μM; format: cell-based; conditions: for EC50: Human immunodeficiency virus 1, MT4, read-out: EC50 (μM), HIV-1NPV5 μM; for n-fold change in EC50, HIV-1NPV5 μM: compared to wild-type HIV-1NL4-3
Protocol: as §3, §2

SMILES	EC50 [1] [µM]	n-fold change in EC50, HIV-1286-1 μM [1]	EC50 [2] [µM]	n-fold change in EC50, HIV-1396-1 μM [2]	EC50 [3] [µM]	n-fold change in EC50, HIV-1246-1 μM [3]	EC50 [4] [µM]	n-fold change of EC50, HIV-1MDR/MM [4]	EC50 [5] [µM]	EC50 [6] [µM]	n-fold change in EC50, HIV-1AZV5 μM [6]	EC50 [7] [µM]	n-fold change in EC50, HIV-1LPV5 μM [7]	EC50 [8] [µM]	n-fold change in EC50, HIV-1APV5 μM [8]	EC50 [9] [µM]	n-fold change in EC50, HIV-1SQV5 μM [9]	EC50 [10] [µM]	n-fold change in EC50, HIV-1NPV5 μM [10]	n-fold change of EC50, HIV-1MDR/JSL ([5]; compared to wild-type HIV-1ERS104pre)
COc1ccc2c(c1)OCCCC=CCCCCN(CC(O)C(Cc1ccccc1)NC(=O)OC1COC3OCCC13)S2(=O)=O (stereo not shown) [Compound 14b]	> 1	> 167	0.25 ± 0.05	(42)	0.33 ± 0.03	(55)	0.055 ± 0.025	(8)	0.21 ± 0.032	0.03 ± 0.006	(3)	0.35 ± 0.019	(39)	> 1	> 111	0.046 ± 0.021	(5)	0.041 ± 0.006	(5)	
CCC[C@@]1(CCc2ccccc2)CC(O)=C([C@H](CC)c2cccc(NS(=O)(=O)c3ccc(C(F)(F)F)cn3)c2)C(=O)O1 [TPV, Tipranavir]	0.037 ± 0.001	(0.1)	0.042 ± 0.002	(0.1)	0.095 ± 0.089	(0.3)	0.36 ± 0.06	(3)	0.23 ± 0.049	0.41 ± 0.047	(1)	0.31 ± 0.03	(1)	0.22 ± 0.089	(0.7)	0.022 ± 0.009	(0.1)	0.039 ± 0.041	(0.1)	(2)
COc1ccc2c(c1)OCCC=CCCCCN(CC(O)C(Cc1ccccc1)NC(=O)OC1COC3OCCC13)S2(=O)=O (stereo not shown) [Compound 14c]	> 1		0.073 ± 0.011		0.3 ± 0.01		0.033 ± 0.01		0.073 ± 0.07	0.023 ± 0.005		0.035 ± 0.005		> 1		0.02 ± 0.009		0.04 ± 0.017		
